# Laboratory results from patent publication US10561653B2 (NOVARTIS AG, priority 2015, dated 2020).
# Assays:
# [1] = test system: B16-CD73+ tumor cells; assay: anti-tumor activity in syngeneic mice injected intravenously with B16-CD73+ tumor cells (lung nodules); assay type: in vivo, C57Bl/6 mice; settings: for number of lung nodules: oral, 30 mg/Kg/day, similar conditions, University of Barcelona, FIGS. 1b and 1c
# Experimental: (§1) (mean lung nodules of 9-10 mice/group±standard errors are shown; *: P<0.05 by Student T test).
# (§2) FIGS. 1b and 1c show the anti-tumoral activity of orally administered Compound A and Compound B in two syngeneic mouse models of cancer. (mean lung nodules of 9-10 mice/group±standard errors are shown; *: P<0.05 by Student T test).
# (§3) All experiments were carried out in accordance with guidelines set out by the Animal Experimental Ethics Committee. […] Vehicle consisted of 0.1% Tween 80 and 0.5% sodium carboxymethylcellulose (NaCMC) in water. Mice were euthanized at day 15, lungs harvested and tumor nodules counted under dissecting microscope. […] Freshly resected NSCLC tumors were obtained through the Tissue Core at Moffitt Cancer Center. The tumor was disaggregated for 2 hours in a Collagenase/DNase solution in the presence of complete protease inhibitors (Roche). Total cells (Tu) were counted. […] IL-2 has been used in some experiments in order to stimulate the IFN-γ production in these very resistant tumor cells. […] IFNg (IFN-γ ELISA R&D Systems) was determinated as a measure of T cell reactivity to autologous tumor cells. […] The compounds A and B were tested using similar experimental conditions, with the exception that the freshly resected NSCLC tumors were obtained from the Hospital Clínico in Barcelona. […] FIG. 8 a-g show the results obtained in each case. […] This is considered a clear signal of immune stimulation of the infiltrating lymphocytes presents in the tumors. […] 4. […] A compound of Formula I will be administered orally to the patient twice daily, fasting, at a dose of 80 mg, 160 mg, 320 mg or 640 mg throughout a cycle of 28 days. […] Response and progression will be evaluated in this study using the new international criteria proposed by the revised Response Evaluation Criteria in Solid Tumors (RECIST) guideline (version 1.1; Eisenhauer E A, Therasse P, Bogaerts J, et al. New response evaluation criteria in solid tumours: revised RECIST guideline (version 1.1). Eur J Cancer 2009; 45:228-47). […]
# [2] = test system: MCA205 tumor cells; assay: anti-tumor activity in syngeneic mice injected intravenously with MCA205 tumor cells (lung nodules); assay type: in vivo, C57Bl/6 mice; settings: for number of lung nodules: oral, 30 mg/Kg/day, similar conditions, University of Barcelona, FIGS. 1b and 1c
# Experimental: as §1, §2, §3
# [3] = test system: freshly resected NSCLC tumors (human lung tumour explants); assay: ex vivo human lung tumour explants: IFNg secretion (IFN-γ ELISA) as measure of T cell (TIL) reactivity; assay type: cell-based; settings: for secretion of IFNg of tumor cells: NSCLC tumors from Hospital Clínico in Barcelona; for interferon gamma secretion from lung tumor cells stimulated with IL-2: FIG. 3
# Experimental: (§4) All experiments were carried out in accordance with guidelines set out by the Animal Experimental Ethics Committee. […] Vehicle consisted of 0.1% Tween 80 and 0.5% sodium carboxymethylcellulose (NaCMC) in water. Mice were euthanized at day 15, lungs harvested and tumor nodules counted under dissecting microscope. […] Freshly resected NSCLC tumors were obtained through the Tissue Core at Moffitt Cancer Center. The tumor was disaggregated for 2 hours in a Collagenase/DNase solution in the presence of complete protease inhibitors (Roche). Total cells (Tu) were counted. […] IL-2 has been used in some experiments in order to stimulate the IFN-γ production in these very resistant tumor cells. […] IFNg (IFN-γ ELISA R&D Systems) was determinated as a measure of T cell reactivity to autologous tumor cells. […] The compounds A and B were tested using similar experimental conditions, with the exception that the freshly resected NSCLC tumors were obtained from the Hospital Clínico in Barcelona. […] FIG. 8 a-g show the results obtained in each case. […] This is considered a clear signal of immune stimulation of the infiltrating lymphocytes presents in the tumors. […] 4. […] A compound of Formula I will be administered orally to the patient twice daily, fasting, at a dose of 80 mg, 160 mg, 320 mg or 640 mg throughout a cycle of 28 days. An anti-PD-1 antibody will be administered at a dose of about 300 mg or about 400 mg once every 3 week or once every 4 weeks. The anti-PD-1 antibody will be administered via IV infusion over a period of 30 minutes to 2 h. The compound of Formula I will be administered fasting immediately prior to the infusion with the anti-PD-1 antibody. In order to determine efficacy, baseline evaluations will be performed as closely as possible to the beginning of treatment and never more than 4 weeks before the beginning of the treatment. In addition to a baseline scan, confirmatory scans will be obtained 4-6 weeks following initial documentation of objective response. Response and progression will be evaluated in this study using the new international criteria proposed by the revised Response Evaluation Criteria in Solid Tumors (RECIST) guideline (version 1.1; Eisenhauer E A, Therasse P, Bogaerts J, et al. New response evaluation criteria in solid tumours: revised RECIST guideline (version 1.1). Eur J Cancer 2009; 45:228-47). Changes in the largest diameter (unidimensional measurement) of the tumor lesions and the shortest diameter in the case of malignant lymph nodes are used (Schwartz L H, Bogaerts J, Ford R, et al. Evaluation of lymph nodes with RECIST 1.1. Eur J Cancer 2009; 45:261-7). All The same method of assessment and the same technique will be used to characterize each identified and reported lesion at baseline and during follow-up. Imaging-based evaluation such as Chest x-ray, conventional CT and MRI will be used.
# [4] = test system: resistant human lung tumor explants; assay: Bioplex assay of interleukins secretion in supernatants of resistant human lung tumor explants; assay type: cell-based
# Experimental: as §4
# [5] = toxicity profile in different animal models; assay type: in vivo; settings: in comparison with classical chemotherapy and other adenosine receptor antagonists
# [6] = compound alone, 1 μM, FIGS. 4-7 (IL-2 stimulated)
# [7] = in combination with an anti-PD-L1 or an anti-PD-1 antibody, FIGS. 4-7
# [8] = compound alone, supernatants from ex vivo experiments, FIG. 8
compound,measurement,setting,value
"Nc1nc(-n2cccn2)nc(-n2cccn2)c1Cl [Compound A, 5-chloro-2,6-di-(1H-pyrazol-1-yl)pyrimidin-4-amine, reference compound]",number of lung nodules,[1],no significant reduction
same,number of lung nodules,[2],no significant reduction
same,secretion of IFNg of tumor cells,[3]; [6],not able to increase the secretion of IFNg
same,secretion of IFNg of tumor cells,[3]; [7],not able to increase the secretion of IFNg
"N#Cc1c(N)nc(-n2cccn2)nc1-n1cccn1 [Compound B, 4-amino-2,6-di-(1H-pyrazol-1-yl)pyrimidine-5-carbonitrile, reference compound]",number of lung nodules,[1],no significant reduction
same,number of lung nodules,[2],no significant reduction
same,secretion of IFNg of tumor cells,[3]; [6],not able to increase the secretion of IFNg
same,secretion of IFNg of tumor cells,[3]; [7],not able to increase the secretion of IFNg
"Nc1nc(-n2cccn2)nc(-n2cccn2)c1Br [Compound of formula (I), 5-bromo-2,6-di-(1H-pyrazol-1-yl)pyrimidin-4-amine]",tumor burden (lung nodule and lung metastasis),"[1]; 3×10^5 B16-CD73+ cells i.v., 15 mg/kg/day oral gavage daily for 15 days vs vehicle, nodules counted day 15, FIG. 1a",significantly reduced tumor burden
same,tumor burden (lung nodule and lung metastasis),"[2]; 2×10^5 MCA205 cells i.v., 30 mg/kg/day oral gavage daily for 7 days vs vehicle, nodules counted day 15, FIG. 1a",significantly reduced tumor burden
same,TIL function (IFNg concentration),"[3]; 1 μM in combination with anti-PD-L1 antibody, other tumors",synergistically capable of restoring TIL function
same,TIL function (IFNg concentration),"[3]; 1 μM in combination with anti-PD-L1 antibody, some of the samples",improved TIL function (as determined by measuring IFNg concentration) in additive way
same,interferon gamma secretion from lung tumor cells stimulated with IL-2,[3]; compound alone,significantly increased
same,interferon gamma secretion from lung tumor cells stimulated with IL-2,"[3]; in combination with anti-PD-1 antibody, compared with compound alone",more pronounced
same,interferon gamma secretion of non-stimulated lung tumor cells,"[3]; in combination with anti-PD-L1 antibody, FIG. 2",significantly increase
same,TIL function (IFNg concentration),"[3]; single agent, other tumors, compound 1 μM, antibody 10 mg/ml",had no effect on TIL function
same,TIL reactivity (IFNg concentration),"[3]; single agent, some of the samples, 200,000 cells/well, 3 days, compound 1 μM, antibody 10 mg/ml",partially restored TIL reactivity
same,secretion of IL5 (Interleukin 5) to the medium,[4]; [8],significantly increase the secretion
same,secretion of IL10 (Interleukin 10) to the medium,[4]; [8],significantly increase the secretion
same,secretion of IL13 (Interleukin 13) to the medium,[4]; [8],significantly increase the secretion
same,secretion of IL17 (Interleukin 17) to the medium,[4]; [8],significantly increase the secretion
same,secretion of ILib (Interleukin 1b) to the medium,[4]; [8],significantly increase the secretion
same,secretion of MIP1b to the medium,[4]; [8],significantly increase the secretion
same,secretion of tumor necrosis factor α (TNFα) to the medium,[4]; [8],significantly increase the secretion
same,secretion of different interleukins,[4]; in combination with either an anti PDL-1 or an anti-PD-1 antibody,increased the secretion of different interleukins of these tumors synergistically
same,toxicity profile,[5],low toxicity profile
